Measurements reported in ChEMBL document CHEMBL1221210, “A Cdc7 kinase inhibitor restricts initiation of DNA replication and has antitumor activity” (Nat Chem Biol, 2008).

What was measured:
HeLa [1] = experiment: Inhibition of DNA replication in human HeLa cells assessed as interorigin distance between homogenous DNA fibers at 2 uM after 6 hrs by immunofluorescence assay; type: functional
HeLa [2] = experiment: Inhibition of DNA replication in human HeLa cells assessed as interorigin distance between homogenous DNA fibers at 20 uM after 6 hrs by immunofluorescence assay; type: functional
HeLa [3] = experiment: Inhibition of DNA replication in human HeLa cells assessed as increase in replication fork speed per min at 2 uM after 4 hrs by immunofluorescence assay; type: functional
HeLa [4] = experiment: Inhibition of DNA replication in human HeLa cells assessed as increase in replication fork speed per min at 20 uM after 2 hrs by immunofluorescence assay; type: functional
HeLa [5] = experiment: Inhibition of DNA replication in human HeLa cells assessed as increase in replication fork speed per min at 20 uM after 6 hrs by immunofluorescence assay; type: functional
HeLa [6] = experiment: Inhibition of DNA synthesis in human HeLa cells assessed as Brd-U uptake at 5 uM after 6 hrs by FACS analysis; type: functional; parameters: scale not given: the % may be the effect or the level left
HeLa [7] = experiment: Inhibition of DNA synthesis in human HeLa cells assessed as Brd-U uptake at 5 uM after 9 hrs by FACS analysis; type: functional; parameters: scale not given: the % may be the effect or the level left
[8] = Induction of cell cycle arrest in NHDF assessed as accumulation at subG1 phase at 5 uM after 24hrs by propidium-iodine staining based FACS analysis in presence of p53 specific siRNA; settings: human
NHDF [9] = experiment: Prevention of nocodazole induced mitotic arrest in NHDF after 1 hr by FACS analysis; type: cell-based; settings: human
[10] = Inhibition of Ck2
[11] = molecular target: Mitogen-activated protein kinase 11 (Homo sapiens, UniProt Q15759); experiment: Inhibition of P38beta
[12] = molecular target: Protein kinase C beta type (Homo sapiens, UniProt P05771); experiment: Inhibition of PKCbeta
OVCAR-8 [13] = experiment: Antiproliferative activity against p53 deficient human OVCAR8 cells after 72 hrs by proliferative assay; type: functional, cell-based; settings: OVCAR-8, 72 h
SF-268 [14] = experiment: Induction of cell cycle arrest in p53 deficient human SF268 cells assessed as accumulation at subG1 phase at 5 uM after 24 hrs FACS analysis; type: functional
HeLa [15] = experiment: Induction of cell cycle arrest in p53 deficient human HeLa cells assessed as assessed as accumulation at subG1 phase at 5 uM after 24hrs by FACS analysis; type: functional
OVCAR-8 [16] = experiment: Induction of cell cycle arrest in p53 deficient human OVCAR8 cells assessed as accumulation at subG1 phase at 5 uM after 24hrs by FACS analysis; type: functional
U2OS = experiment: Induction of cell cycle arrest in human U2OS cells expressing p53 gene assessed as accumulation at subG1 phase at 5 uM after 24hrs by FACS analysis; type: functional
A2780 [17] = experiment: Induction of cell cycle arrest in human A2780 cells expressing p53 gene assessed as accumulation at subG1 phase at 5 uM after 24hrs by FACS analysis; type: functional
PC-3 = experiment: Induction of cell cycle arrest in human PC3 cells expressing p53 gene assessed as accumulation at subG1 phase at 5 uM after 24hrs by FACS analysis; type: functional
NHDF [18] = experiment: Induction of cell cycle arrest in NHDF expressing p53 gene assessed as accumulation at subG1 phase at 5 uM after 24hrs by FACS analysis; type: cell-based; settings: human
SF-268 [19] = experiment: Induction of cell cycle arrest in p53 deficient human SF268 cells assessed as accumulation at subG1 phase at 10 uM after 24 hrs FACS analysis; type: functional
K562 [20] = experiment: Induction of cell cycle arrest in p53 deficient human K562 cells assessed as accumulation at subG1 phase at 10 uM after 24hrs by FACS analysis; type: functional
SW480 = experiment: Induction of cell cycle arrest in p53 deficient human SW480 cells assessed as accumulation at subG1 phase at 10 uM after 24hrs by FACS analysis; type: functional
[21] = Induction of cell cycle arrest in p53 deficient human A2780/E6 cells assessed as accumulation at subG1 phase at 10 uM after 24hrs by FACS analysis; type: functional
HCT-116 [22] = experiment: Induction of cell cycle arrest in human HCT116 cells expressing p53 gene assessed as accumulation at subG1 phase at 10 uM after 24 hrs by FACS analysis; type: functional
SF-539 [23] = experiment: Induction of cell cycle arrest in human SF539 cells expressing p53 gene assessed as accumulation at subG1 phase at 10 uM after 24 hrs by FACS analysis; type: functional
A2780 [24] = experiment: Induction of cell cycle arrest in human A2780 cells expressing p53 gene assessed as accumulation at subG1 phase at 10 uM after 24 hrs by FACS analysis; type: functional
COLO 205 = experiment: Induction of cell cycle arrest in p53 deficient human COLO205 cells assessed as residual DNA synthesis at 5 uM after 24 hrs by FACS analysis; type: functional
[25] = Induction of cell cycle arrest in p53 deficient human HCT116-E6 cells assessed as residual DNA synthesis at 5 uM after 24 hrs by FACS analysis; type: functional
OVCAR-8 [26] = experiment: Induction of cell cycle arrest in p53 deficient human OVCAR8 cells assessed as residual DNA synthesis at 5 uM after 24hrs by FACS analysis; type: functional
HCT-116 [27] = experiment: Induction of cell cycle arrest in human HCT116 cells expressing p53 gene assessed as residual DNA synthesis at 5 uM after 24 hrs by FACS analysis; type: functional
HCT-15 = experiment: Induction of cell cycle arrest in human HCT15 cells expressing p53 gene assessed as residual DNA synthesis at 5 uM after 24 hrs by FACS analysis; type: functional
NHDF [28] = experiment: Induction of cell cycle arrest in NHDF expressing p53 gene assessed as residual DNA synthesis at 5 uM after 24 hrs by FACS analysis; type: cell-based; settings: human
K562 [29] = experiment: Induction of cell cycle arrest in p53 deficient human K562 cells assessed as residual DNA synthesis at 10 uM after 24 hrs by FACS analysis; type: functional
[30] = Induction of cell cycle arrest in p53 deficient human HCT116-E6 cells assessed as residual DNA synthesis at 10 uM after 24 hrs by FACS analysis; type: functional
Jurkat = experiment: Induction of cell cycle arrest in p53 deficient human Jurkat cells assessed as residual DNA synthesis at 10 uM after 24 hrs by FACS analysis; type: functional
OVCAR-8 [31] = experiment: Induction of cell cycle arrest in p53 deficient human OVCAR8 cells assessed as residual DNA synthesis at 10 uM after 24 hrs by FACS analysis; type: functional
MCF7 = experiment: Induction of cell cycle arrest in human MCF7 cells expressing p53 gene assessed as residual DNA synthesis at 10 uM after 24 hrs by FACS analysis; type: functional
SF-539 [32] = experiment: Induction of cell cycle arrest in human SF539 cells expressing p53 gene assessed as residual DNA synthesis at 10 uM after 24 hrs by FACS analysis; type: functional
NHDF [33] = experiment: Induction of cell cycle arrest in NHDF expressing p53 gene assessed as residual DNA synthesis at 10 uM after 24 hrs by FACS analysis; type: cell-based; settings: human

Protein kinase C beta type, sequence (P05771 whole entry): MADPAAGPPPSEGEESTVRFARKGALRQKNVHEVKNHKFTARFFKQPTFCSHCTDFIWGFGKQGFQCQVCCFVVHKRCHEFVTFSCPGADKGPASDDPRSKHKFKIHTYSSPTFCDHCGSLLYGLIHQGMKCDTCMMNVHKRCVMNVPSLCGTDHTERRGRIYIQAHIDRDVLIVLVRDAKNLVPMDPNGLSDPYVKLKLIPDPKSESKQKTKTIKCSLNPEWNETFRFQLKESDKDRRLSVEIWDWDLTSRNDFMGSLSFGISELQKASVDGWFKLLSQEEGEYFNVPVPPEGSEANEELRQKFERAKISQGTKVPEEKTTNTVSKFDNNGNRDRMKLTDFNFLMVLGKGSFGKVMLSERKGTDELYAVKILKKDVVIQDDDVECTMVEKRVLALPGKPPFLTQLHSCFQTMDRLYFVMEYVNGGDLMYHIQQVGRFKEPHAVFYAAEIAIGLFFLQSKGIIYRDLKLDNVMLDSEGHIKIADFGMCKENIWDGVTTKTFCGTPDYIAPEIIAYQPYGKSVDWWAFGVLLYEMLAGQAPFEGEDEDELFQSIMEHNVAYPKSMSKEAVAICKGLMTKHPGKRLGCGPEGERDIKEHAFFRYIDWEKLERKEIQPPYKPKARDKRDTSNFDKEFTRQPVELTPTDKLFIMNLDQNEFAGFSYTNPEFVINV
Mitogen-activated protein kinase 11, sequence (Q15759 whole entry): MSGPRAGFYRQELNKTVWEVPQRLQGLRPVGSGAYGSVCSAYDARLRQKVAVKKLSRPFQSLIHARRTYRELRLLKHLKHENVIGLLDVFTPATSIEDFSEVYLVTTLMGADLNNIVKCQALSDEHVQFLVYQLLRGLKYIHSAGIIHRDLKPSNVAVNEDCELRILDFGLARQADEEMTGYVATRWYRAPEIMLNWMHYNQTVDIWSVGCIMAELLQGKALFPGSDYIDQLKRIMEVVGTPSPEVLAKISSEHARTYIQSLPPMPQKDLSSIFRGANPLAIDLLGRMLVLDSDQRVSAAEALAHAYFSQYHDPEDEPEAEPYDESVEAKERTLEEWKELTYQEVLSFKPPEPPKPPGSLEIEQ

## O=C1NCCc2[nH]c(-c3ccncc3)cc21
HeLa [1]
  Activity: 241 kilobase
HeLa [2]
  Activity: 287 kilobase
HeLa [3]
  Activity: 1.81 kilobase
HeLa [4]
  Activity: 1.92 kilobase
HeLa [5]
  Activity: 2.28 kilobase
HeLa [6]
  Activity: 26%
HeLa [7]
  Activity: 9%
[8]
  Activity: 6.8%
NHDF [9]
  Activity: Not Active
[10]
  IC50: > 10 µM
[11]
  IC50: > 10 µM
[12]
  IC50: > 10 µM
OVCAR-8 [13]
  IC50: 1.56 µM
SF-268 [14]
  Activity: 3%
HeLa [15]
  Activity: 10%
OVCAR-8 [16]
  Activity: 3%
U2OS
  Activity: 3%
A2780 [17]
  Activity: >20%
PC-3
  Activity: 3%
NHDF [18]
  Activity: < 3%
SF-268 [19]
  Activity: 3%
K562 [20]
  Activity: <3%
SW480
  Activity: >20%
[21]
  Activity: >20%
HCT-116 [22]
  Activity: 3%
SF-539 [23]
  Activity: 3%
A2780 [24]
  Activity: >20%
COLO 205
  Activity: <3%
[25]
  Activity: 3%
OVCAR-8 [26]
  Activity: <3%
HCT-116 [27]
  Activity: 3%
HCT-15
  Activity: <3%
NHDF [28]
  Activity: < 3%
K562 [29]
  Activity: 10%
[30]
  Activity: <3%
Jurkat
  Activity: <3%
OVCAR-8 [31]
  Activity: <3%
MCF7
  Activity: <3%
SF-539 [32]
  Activity: <3%
NHDF [33]
  Activity: < 3%
